Data set [1] in a line: Plasma pharmacokinetics of 17-AAG and its metabolite 17-AG. Type of data set: in vivo, patients. The settings on record: for AUC exposed: combined AUC of 17-AAG and 17-AG.
The subject of data set [2] is acute myeloid leukemia. The settings on record: phase I trial in AML, after one cycle of therapy; cited from earlier work.
For data set [3], the system named is cytochrome P450 3A4. The settings on record: cited from earlier work.
[4] abbreviates: 17-AAG in plasma, day 1 (17-AAG alone), 150 mg/m^2, n=8.
[5] abbreviates: 17-AAG in plasma, day 1 (17-AAG alone), 200 mg/m^2, n=3.
The mark [6] stands for this setting: 17-AAG in plasma, day 4 (17-AAG+PS-341), 150 mg/m^2, n=8.
The mark [7] stands for this setting: 17-AAG in plasma, day 4 (17-AAG+PS-341), 200 mg/m^2, n=3.
The mark [8] stands for this setting: 17-AAG, day 1 (17-AAG alone), 150 mg/m^2, n=8.
Setting [9] is: 17-AAG, day 1 (17-AAG alone), 200 mg/m^2, n=3.
The mark [10] stands for this setting: 17-AAG, day 4 (17-AAG+PS-341), 150 mg/m^2, n=8.
Setting [11] is: 17-AAG, day 4 (17-AAG+PS-341), 200 mg/m^2, n=3.
The mark [12] stands for this setting: metabolite 17-AG, day 1 (17-AAG alone), 17-AAG 150 mg/m^2, n=8.
Where [13] appears, read: metabolite 17-AG, day 1 (17-AAG alone), 17-AAG 200 mg/m^2, n=3.
[14] abbreviates: metabolite 17-AG, day 4 (17-AAG+PS-341), 17-AAG 150 mg/m^2, n=8.
[15] abbreviates: metabolite 17-AG, day 4 (17-AAG+PS-341), 17-AAG 200 mg/m^2, n=3.

SMILES strings stand for the structures.

Take `C=CCNC1=C2C[C@@H](C)C[C@H](OC)[C@H](O)[C@@H](C)/C=C(\C)[C@H](OC(N)=O)[C@@H](OC)/C=C\C=C(/C)C(=O)NC(=CC1=O)C2=O` [17-AAG, 17-Allylamino-17-demethoxygeldanamycin, reference compound]: in data set [1] (17-AAG in plasma, cycle 1 day 1 (17-AAG alone), 17-AAG 200 mg/m^2 IV, n=3), the Cmax (usually the highest concentration seen after dosing) stood at 3814 ± 578 ng/mL. The AUCtot turned out to be 5871 ± 2508 ng·h/mL in data set [1] (setting [4]), 9002 ± 1970 ng·h/mL in data set [1] (setting [5]), 6717 ± 2631 ng·h/mL in data set [1] (setting [6]) and 9142 ± 1358 ng·h/mL in data set [1] (setting [7]). In addition, the “Terminal T1/2” value in data set [1] (setting [4]) was 4.77 ± 1.15 h; in data set [1] (setting [5]), 4.59 ± 0.21 h; in data set [1] (setting [6]), 4.04 ± 0.86 h; in data set [1] (setting [7]), 3.78 ± 1.29 h. Moreover, the Clearance in data set [1] (setting [8]) was found to be 29.36 ± 11.11 L/h; in data set [1] (setting [9]), 22.92 ± 4.89 L/h; in data set [1] (setting [10]), 24.94 ± 8.10 L/h; in data set [1] (setting [11]), 21.92 ± 3.91 L/h. For the same compound, the Vss (in general, a proportionality between amount in the body and measured concentration, not a real space) in data set [1] (setting [8]) worked out at 98.10 ± 37.46 L; in data set [1] (setting [9]) it was 73.30 ± 16.81 L; in data set [1] (setting [10]), 82.36 ± 19.91 L; in data set [1] (setting [11]), 86.83 ± 24.37 L.

As for `CO[C@H]1/C=C\C=C(/C)C(=O)NC2=CC(=O)C(N)=C(C[C@@H](C)C[C@H](OC)[C@H](O)[C@@H](C)/C=C(\C)[C@@H]1OC(N)=O)C2=O` [17-AG, 17-amino-17-demethoxygeldanamycin], the AUC exposed in data set [1] (day 1 (17-AAG alone), 17-AAG 150 mg/m^2, n=8) amounted to 12205 ± 8530 ng·h/mL; in data set [1] (day 1 (17-AAG alone), 17-AAG 200 mg/m^2, n=3) it was 18959 ± 3169 ng·h/mL; in data set [1] (day 4 (17-AAG+PS-341), 17-AAG 150 mg/m^2, n=8) it was 14468 ± 7179 ng·h/mL; in data set [1] (day 4 (17-AAG+PS-341), 17-AAG 200 mg/m^2, n=3), 22403 ± 1036 ng·h/mL. In data set [1] (day 4 (17-AAG+bortezomib) vs day 1 (17-AAG alone), all 11 patients, p=0.005), the “change in 17-AG clearance on co-administration with bortezomib” value was “decrease in clearance”. For the same compound, the “change in 17-AG AUC on co-administration with bortezomib” value in data set [1] (day 4 (17-AAG+bortezomib) vs day 1 (17-AAG alone), all 11 patients, p=.032) was “increase in AUC”. In addition, the Cmax in data set [1] (metabolite 17-AG in plasma, day 1 (17-AAG alone), 17-AAG 150 mg/m^2, n=8) is listed as 821 ± 450 ng/mL; in data set [1] (metabolite 17-AG in plasma, day 1 (17-AAG alone), 17-AAG 200 mg/m^2, n=3), 1300 ± 421 ng/mL; in data set [1] (metabolite 17-AG in plasma, day 4 (17-AAG+PS-341), 17-AAG 150 mg/m^2, n=8), 1025 ± 445 ng/mL; in data set [1] (metabolite 17-AG in plasma, day 4 (17-AAG+PS-341), 17-AAG 200 mg/m^2, n=3), 1412 ± 26 ng/mL. For the same compound, the Clearance in data set [1] (metabolite 17-AG, apparent clearance, day 1 (17-AAG alone), 17-AAG 150 mg/m^2, n=8) came to 41.35 ± 26.48 L/h; in data set [1] (metabolite 17-AG, apparent clearance, day 1 (17-AAG alone), 17-AAG 200 mg/m^2, n=3) it was 23.07 ± 12.01 L/h; in data set [1] (metabolite 17-AG, apparent clearance, day 4 (17-AAG+PS-341), 17-AAG 150 mg/m^2, n=8), 29.87 ± 23.29 L/h; in data set [1] (metabolite 17-AG, apparent clearance, day 4 (17-AAG+PS-341), 17-AAG 200 mg/m^2, n=3), 14.86 ± 1.55 L/h. Besides, the AUCtot in data set [1] (setting [12]) was 6334 ± 6244 ng·h/mL; in data set [1] (setting [13]), 9957 ± 4258 ng·h/mL; in data set [1] (setting [14]), 7751 ± 5028 ng·h/mL; in data set [1] (setting [15]), 13261 ± 1216 ng·h/mL. The “Terminal T1/2” value in data set [1] (setting [12]) is 11.16 ± 1.40 h; in data set [1] (setting [13]) it was 7.92 ± 1.76 h; in data set [1] (setting [14]), 10.53 ± 2.20 h; in data set [1] (setting [15]) it was 7.47 ± 0.73 h. Besides, the Tmax (in general, the time from dosing to the highest level) in data set [1] (setting [12]) came to 1.53 ± 0.42 h; in data set [1] (setting [13]), 1.53 ± 0.46 h; in data set [1] (setting [14]), 1.85 ± 1.10 h; in data set [1] (setting [15]), 3.72 ± 0.64 h.

Regarding `CO[C@H]1/C=C\C=C(/C)C(=O)NC2=CC(=O)C(NCCN(C)C)=C(C[C@@H](C)C[C@H](OC)[C@H](O)[C@@H](C)/C=C(\C)[C@@H]1OC(N)=O)C2=O` [alvespimycin], in data set [2], the clinical response result is listed as “three patients achieved a complete remission with incomplete count recovery”.

With `CC(C)C[C@H](NC(=O)[C@H](Cc1ccccc1)NC(=O)c1cnccn1)B(O)O` [bortezomib], in data set [3], the metabolizing enzyme result was “metabolized by cytochrome P450 3A4”.

The record behind these values is article PMC3860322 (Leukemia & lymphoma, 2013).
